Reference: ChEMBL document CHEMBL4346695, “Thiophenol-formaldehyde triazole causes apoptosis induction in ovary cancer cells and prevents tumor growth formation in mice model” (2019)
Calls of active or inactive are those of the source. The calls are words filed in the database; no cut-off is given here.

Assays:
Caov-3 cell line [1] = test: Induction of apoptosis in human Caov3 cells assessed as formation of apoptotic nuclei at 2.0 uM incubated for 48 hrs by Hoechst 33342 staining based fluorescent microscopic method; type: functional, cell-based
Caov-3 cell line [2] = test: Growth inhibition of human Caov3 cells incubated for 48 hrs by MTT assay; type: functional, cell-based
Homo sapiens [3] = organism: Homo sapiens; test: Growth inhibition of human ES2 cells incubated for 48 hrs by MTT assay; type: functional
Caov-4 [4] = test: Growth inhibition of human Caov4 cells incubated for 48 hrs by MTT assay; type: functional, cell-based
Caov-3 cell line [5] = test: Growth inhibition of human Caov3 cells at 0.5 uM incubated for 48 hrs by MTT assay; type: functional, cell-based
Homo sapiens [6] = organism: Homo sapiens; test: Growth inhibition of human ES2 cells at 0.5 uM incubated for 48 hrs by MTT assay; type: functional
Caov-4 [7] = test: Growth inhibition of human Caov4 cells at 0.5 uM incubated for 48 hrs by MTT assay; type: functional, cell-based
Caov-3 cell line [8] = test: Growth inhibition of human Caov3 cells at 2 uM incubated for 48 hrs by MTT assay relative to control; type: functional; conditions: Caov-3, 48 h, read-out: GI
Caov-4 [9] = test: Growth inhibition of human Caov4 cells at 2 uM incubated for 48 hrs by MTT assay relative to control; type: functional; conditions: Caov-4, 48 h, read-out: GI
[10] = Growth inhibition of human ES2 cells at 2 uM incubated for 48 hrs by MTT assay relative to control; type: functional; conditions: ES-2, 48 h, read-out: GI
Caov-3 cell line [11] = test: Growth inhibition of human Caov3 cells at 0.25 uM incubated for 48 hrs by MTT assay; type: functional, cell-based
Homo sapiens [12] = organism: Homo sapiens; test: Growth inhibition of human ES2 cells at 0.25 uM incubated for 48 hrs by MTT assay; type: functional
Caov-4 [13] = test: Growth inhibition of human Caov4 cells at 0.25 uM incubated for 48 hrs by MTT assay; type: functional, cell-based
Caov-3 cell line [14] = test: Induction of apoptosis in human Caov3 cells at 0.25 to 2.0 uM incubated for 48 hrs by Hoechst 33342 staining based fluorescent microscopic method; type: functional, cell-based
Caov-3 cell line [15] = test: Induction of apoptosis in human Caov3 cells assessed as formation of apoptotic nuclei at 0.25 uM incubated for 48 hrs by Hoechst 33342 staining based fluorescent microscopic method relative to control; type: functional
Caov-3 cell line [16] = test: Induction of apoptosis in human Caov3 cells assessed as formation of apoptotic nuclei at 0.5 uM incubated for 48 hrs by Hoechst 33342 staining based fluorescent microscopic method relative to control; type: functional
Caov-3 cell line [17] = test: Induction of apoptosis in human Caov3 cells assessed as formation of apoptotic nuclei at 1.0 uM incubated for 48 hrs by Hoechst 33342 staining based fluorescent microscopic method relative to control; type: functional
Caov-3 cell line [18] = test: Induction of apoptosis in human Caov3 cells assessed as formation of apoptotic nuclei at 1.5 uM incubated for 48 hrs by Hoechst 33342 staining based fluorescent microscopic method relative to control; type: functional
Caov-3 cell line [19] = test: Induction of apoptosis in human Caov3 cells assessed as formation of apoptotic nuclei at 2.0 uM incubated for 48 hrs by Hoechst 33342 staining based fluorescent microscopic method relative to control; type: functional
Caov-3 cell line [20] = test: Induction of Cell cycle arrest in human Caov3 cells assessed as accumulation at G0/G1 phase at 1 uM incubated for 48 hrs by propidium iodide staining based flow cytometric analysis (reference value: 57.77%); type: functional
Caov-3 cell line [21] = test: Induction of Cell cycle arrest in human Caov3 cells assessed as accumulation at S phase at 1 uM incubated for 48 hrs by propidium iodide staining based flow cytometric analysis (reference value: 18.89%); type: functional
Caov-3 cell line [22] = test: Induction of Cell cycle arrest in human Caov3 cells assessed as accumulation at G2/M phase at 1 uM incubated for 48 hrs by propidium iodide staining based flow cytometric analysis (reference value: 22.68%); type: functional
Caov-3 cell line [23] = test: Induction of Cell cycle arrest in human Caov3 cells assessed as accumulation at G0/G1 phase at 1.5 uM incubated for 48 hrs by propidium iodide staining based flow cytometric analysis (reference value: 57.77%); type: functional
Caov-3 cell line [24] = test: Induction of Cell cycle arrest in human Caov3 cells assessed as accumulation at S phase at 1.5 uM incubated for 48 hrs by propidium iodide staining based flow cytometric analysis (reference value: 18.89%); type: functional
Caov-3 cell line [25] = test: Induction of Cell cycle arrest in human Caov3 cells assessed as accumulation at G2/M phase at 1.5 uM incubated for 48 hrs by propidium iodide staining based flow cytometric analysis (reference value: 22.68%); type: functional
Caov-3 cell line [26] = test: Induction of Cell cycle arrest in human Caov3 cells assessed as accumulation at G0/G1 phase at 2 uM incubated for 48 hrs by propidium iodide staining based flow cytometric analysis (reference value: 57.77%); type: functional
Caov-3 cell line [27] = test: Induction of Cell cycle arrest in human Caov3 cells assessed as accumulation at S phase at 2 uM incubated for 48 hrs by propidium iodide staining based flow cytometric analysis (reference value: 18.89%); type: functional
Caov-3 cell line [28] = test: Induction of Cell cycle arrest in human Caov3 cells assessed as accumulation at G2/M phase at 2 uM incubated for 48 hrs by propidium iodide staining based flow cytometric analysis (reference value: 22.68%); type: functional
Caov-3 cell line [29] = test: Antiinvasive activity in human Caov3 cells at 0.25 uM incubated for 48 hrs using hematoxylin by microscopy-based transwell assay; type: functional, cell-based
Caov-3 cell line [30] = test: Antiinvasive activity in human Caov3 cells at 0.5 uM incubated for 48 hrs using hematoxylin by microscopy-based transwell assay relative to control; type: functional
Caov-3 cell line [31] = test: Antiinvasive activity in human Caov3 cells at 1.0 uM incubated for 48 hrs using hematoxylin by microscopy-based transwell assay relative to control; type: functional

**Q.** What does the source list for `Fc1ccccc1-n1cc(COCc2ccccc2S)nn1`?
**A.** Activity (Caov-3 cell line [1]): Active; growth inhibition (GI) (Caov-3 cell line [2]): Dose-dependent effect; growth inhibition (GI) (Homo sapiens [3]): Dose-dependent effect; growth inhibition (GI) (Caov-4 [4]): Dose-dependent effect; growth inhibition (GI) (Caov-3 cell line [5]): Active; growth inhibition (GI) (Homo sapiens [6]): Active; growth inhibition (GI) (Caov-4 [7]): Active; inhibition of growth at 2 µM (Caov-3 cell line [8]): 27%; inhibition of growth at 2 µM (Caov-4 [9]): 26%; inhibition of growth at 2 µM [10]: 29%; growth inhibition (GI) (Caov-3 cell line [11]): inactive; growth inhibition (GI) (Homo sapiens [12]): inactive; growth inhibition (GI) (Caov-4 [13]): inactive; Activity (Caov-3 cell line [14]): Active; Activity (Caov-3 cell line [15]): 1.26%; Activity (Caov-3 cell line [16]): 8.67%; Activity (Caov-3 cell line [17]): 21.54%; Activity (Caov-3 cell line [18]): 45.89%; Activity (Caov-3 cell line [19]): 62.53%; Activity (Caov-3 cell line [20]): 61.63%; Activity (Caov-3 cell line [21]): 16.23%; Activity (Caov-3 cell line [22]): 21.19%; Activity (Caov-3 cell line [23]): 64.57%; Activity (Caov-3 cell line [24]): 14.61%; Activity (Caov-3 cell line [25]): 20.07%; Activity (Caov-3 cell line [26]): 69.54%; Activity (Caov-3 cell line [27]): 11.48%; Activity (Caov-3 cell line [28]): 18.08%; Activity (Caov-3 cell line [29]): inactive; Activity (Caov-3 cell line [30]): 84.54%; Activity (Caov-3 cell line [31]): 67.76%
